This is an account of results in ChEMBL document CHEMBL4715899, “In-situ side-chain peptide cyclization as a breaker strategy against the amyloid aggregating peptide” (Bioorg Med Chem, 2021).

Activity calls are given as the source filed them. The calls are words filed in the database; no cut-off is given here. Residues, ends and D or L forms follow the SMILES beside them. *: point of attachment. OBn = c1ccc(CO*)cc1

The species entered for data set [1] is Homo sapiens. The data set is described as follows: Inhibition of amyloid beta (1 to 40) (unknown origin) aggregation assessed as fibril formation at protein to ligand concentration ratio of 1:1 to 1:5 after 7 days by TEM analysis. The settings on record: time 7.0 day.
For data set [2], the species on record is Homo sapiens. Briefly: Disruption of preformed amyloid beta (1 to 40) (unknown origin) aggregation assessed as reduction in fibril formation at protein to ligand concentration ratio of 1:1 to 1:5 after 7 days by CD spectroscopic analysis. The conditions noted are these: time 7.0 day.
The species named for data set [3] is Homo sapiens. Briefly: Inhibition of preformed amyloid beta (1 to 40) (unknown origin)-induced pore formation in large unilamellar vesicles at 10 days pretested 1:5 ratio of amyloid beta (1 to 40) to ligand concentration followed by LUV treatment and measured up to 120 mins by carboxy-fluorescein dye assay. The conditions noted are these: time 10.0 day.
For data set [4], the species on record is Homo sapiens. Briefly: Inhibition of amyloid beta (1 to 40) (unknown origin) aggregation assessed as fibril formation at protein to ligand concentration ratio of 1:1 to 1:5 after 7 days by Congo-Red staining based birefringence anlaysis. The settings on record: time 7.0 day.
Data set [5] is filed under the species Homo sapiens. Briefly: Inhibition of amyloid beta (1 to 40) (unknown origin)-induced pore formation in large unilamellar vesicles at 10 days pretested 1:5 ratio of amyloid beta (1 to 40) to ligand concentration followed by LUV treatment and measured up to 72 hrs by carboxy-fluorescein dye assay. The settings on record: time 10.0 day.
For data set [6], the species on record is Homo sapiens. The data set is described as follows: Disruption of preformed amyloid beta (1 to 40) (unknown origin) aggregation assessed as reduction in fibril formation at protein to ligand concentration ratio of 1:1 to 1:5 after 4 to 7 days by FTIR analysis. The conditions noted are these: time 4-7 day.
The species entered for data set [7] is Homo sapiens. The data set is described as follows: Inhibition of amyloid beta (1 to 40) (unknown origin) aggregation at protein to ligand concentration ratio of 1:1 to 1:5 after 7 days by FTIR analysis. The settings on record: time 7.0 day.
For data set [8], the species on record is Homo sapiens. Briefly: Disruption of preformed amyloid beta (1 to 40) (unknown origin) aggregation assessed as reduction in fibril formation at protein to ligand concentration ratio of 1:1 to 1:5 after 7 days by thioflavin-T fluorescence assay. The conditions noted are these: time 7.0 day.
The nature of data set [9]: Amyloidogenic property of compound in PBS buffer at pH 7.4 assessed as fibrillar assembly at 50 uM after 7 days by TEM anlaysis. The conditions noted are these: time 7.0 day.
The species entered for data set [10] is Homo sapiens. Briefly: Inhibition of amyloid beta (1 to 40) (unknown origin) aggregation at protein to ligand concentration ratio of 1:1 to 1:5 after 7 days by CD spectroscopic analysis. The settings on record: time 7.0 day.
A short description of data set [11]: Amyloidogenic property of compound in PBS buffer at pH 7.4 assessed as fibrillar assembly at 50 uM after 7 days by Congo-Red staining based birefringence anlaysis. The settings on record: time 7.0 day.
Data set [12] is filed under the species Homo sapiens. The data set is described as follows: Inhibition of preformed amyloid beta (1 to 40) (unknown origin)-induced pore formation in large unilamellar vesicles at 10 days pretested 1:5 ratio of amyloid beta (1 to 40) to ligand concentration followed by LUV treatment and measured up to 172 hrs by carboxy-fluorescein dye assay. The conditions noted are these: time 10.0 day.

For data set [13], the species on record is Homo sapiens. The data set is described as follows: Disruption of preformed amyloid beta (1 to 40) (unknown origin) aggregation assessed as reduction in fibril formation at protein to ligand concentration ratio of 1:1 to 1:5 after 7 days by FTIR analysis. The settings on record: time 7.0 day.
Data set [14] is filed under the species Homo sapiens. The data set is described as follows: Disruption of preformed amyloid beta (1 to 40) (unknown origin) aggregation assessed as reduction in fibril formation at protein to ligand concentration ratio of 1:1 to 1:5 after 4 to 7 days by Congo-Red staining based birefringence anlaysis. The conditions noted are these: time 4-7 day.
Data set [15] is filed under the species Homo sapiens. The data set is described as follows: Inhibition of amyloid beta (1 to 40) (unknown origin)-induced pore formation in large unilamellar vesicles at 10 days pretested 1:5 ratio of amyloid beta (1 to 40) to ligand concentration followed by LUV treatment and measured up to 120 mins by carboxy-fluorescein dye assay. The settings on record: time 10.0 day.

Data set [16] can be described thus: Aggregation property of the compound in PBS buffer at pH 7.4 at 50 uM after 7 days by thioflavin-T fluorescence assay. The settings on record: pH 7.4, 168 h, time 7 day. It counts as physicochemical.
The species entered for data set [17] is Homo sapiens. Briefly: Inhibition of amyloid beta (1 to 40) (unknown origin) aggregation assessed as fibril formation at protein to ligand concentration ratio of 1:1 to 1:5 after 7 days by thioflavin-T fluorescence assay. The conditions noted are these: time 7.0 day.

Take `CC(=O)N[C@@H](CCCCN)C(=O)N[C@@H](CC(C)C)C(=O)N[C@@H](CCC(=O)OCc1ccccc1)C(=O)N[C@@H](Cc1ccccc1)C(=O)N[C@@H](Cc1ccccc1)C(=O)N[C@@H](C)C(N)=O` (Ac-KLE(OBn)FFA-NH2): the inhibition entry in the data set listed under Homo sapiens [1], in the data set listed under Homo sapiens [3], in the data set listed under Homo sapiens [4], in the data set listed under Homo sapiens [5], in the data set listed under Homo sapiens [7] and in the data set listed under Homo sapiens [10] was “Active” in each case. The inhibition result in the data set filed under Homo sapiens [12], in the data set listed under Homo sapiens [15] and in the data set listed under Homo sapiens [17] was “Active” throughout. The outcome in the data set listed under Homo sapiens [2], in the data set listed under Homo sapiens [6], in the data set filed under Homo sapiens [8], in the data set listed under Homo sapiens [13] and in the data set listed under Homo sapiens [14] was Active. Further, the result in data set [9] and in data set [11] was inactive. In addition, in data set [16], the Activity result is given as “Not Active”.

With `CC(=O)N[C@@H](CCCCN)C(=O)NCC(=O)N[C@@H](CCC(=O)OCc1ccccc1)C(=O)N[C@@H](Cc1ccccc1)C(=O)N[C@@H](Cc1ccccc1)C(=O)N[C@@H](C)C(N)=O` (Ac-KGE(OBn)FFA-NH2), the inhibition entry in the data set listed under Homo sapiens [1], in the data set listed under Homo sapiens [4], in the data set filed under Homo sapiens [7], in the data set listed under Homo sapiens [10] and in the data set filed under Homo sapiens [17] was “Active” in each case. Also, the outcome in the data set listed under Homo sapiens [2], in the data set listed under Homo sapiens [6], in the data set filed under Homo sapiens [8], in the data set filed under Homo sapiens [13] and in the data set filed under Homo sapiens [14] was Active. The outcome in data set [9] and in data set [11] was inactive. Further, the Activity entry in [16] is given as “Not Active”.

Regarding `CC(=O)N[C@@H](CCCCN)C(=O)N[C@@H](C)C(=O)N[C@@H](CCC(=O)OCc1ccccc1)C(=O)N[C@@H](Cc1ccccc1)C(=O)N[C@@H](Cc1ccccc1)C(=O)N[C@@H](C)C(N)=O` (Ac-KAE(OBn)FFA-NH2), the inhibition result in the data set listed under Homo sapiens [1], in the data set filed under Homo sapiens [4], in the data set filed under Homo sapiens [7], in the data set listed under Homo sapiens [10] and in the data set filed under Homo sapiens [17] was “Active” in each case. Moreover, the outcome in the data set listed under Homo sapiens [2], in the data set listed under Homo sapiens [6], in the data set filed under Homo sapiens [8], in the data set listed under Homo sapiens [13] and in the data set filed under Homo sapiens [14] was Active. Further, the result in [9] and in [11] was inactive. Moreover, the Activity result in data set [16] is “Not Active”.
